Columns and labels:
TDP-43 = assay: Cytoplasmic TDP-43 in spinal motor neurons after glutamate injury; format: cell-based, rat; settings: glutamate 5 μM 20 min; highest dose
Procedure: (§1) Rat spinal cord motor neurons (MNs) were cultured as described by Martinou et al. (1992) Neuron. 8:737-744 and Wang et al. (2013) Hum. Mol. Genet. 22:4706-4719. Briefly, pregnant female rats of 14 days gestation (Rats Wistar; Janvier Labs France) were killed using a deep anesthesia with CO2 chamber and a cervical dislocation. Then, fetuses were removed from the uterus and immediately placed in ice-cold L15 Leibovitz medium with a 2% penicillin (10,000 U/ml) and streptomycin (10 mg/ml) solution (PS) and 1% bovine serum albumin (BSA).
Spinal cords were treated for 20 min at 37° C. with a trypsin-EDTA solution at a final concentration of 0.05% trypsin and 0.02% EDTA. […] Viable cells were counted in a Neubauer cytometer, using the trypan blue exclusion test. […]
(§2) Test compounds were tested in 96-well plate (n=6 culture wells per condition). The following conditions were assessed: […]
(§3) The following endpoints were automatically assessed: • Analysis of neuron survival (MAP-2 staining, number of neurons), • Analysis of neurite network (MAP-2 staining, total neurite length in μm), • Analysis of neurite network/neurons (neuronal network/number of MAP2 neurons), • Analysis of cytoplasmic TDP-43 in MAP-2 positive neurons (overlapping between MAP-2 and cytoplasmic TDP-43 in μm^2).

[1] = tested on: rat primary GABAergic neurons under a growth factor deprivation; assay: Survival of GABAergic neurons after growth factor deprivation; format: cell-based; settings: BDNF and GDNF deprivation 96 h
Procedure: The aim of this study was to investigate the neuroprotective effect of MR33583 (at 4 concentrations) in MSN of striatum survival after growth factor deprivation (BDNF and GDNF deprivation), an in vitro model of Huntington's disease.
Rat MSN of striatum were cultured as described by Ivkovic et al. (1999) J. Neurosci. 19:5409-5419 and Schinelli et al. (1988) J. Neurochem. 50:1900-1907. Briefly pregnant female rats of 15 days gestation were killed using a deep anesthesia with CO2 chamber and a cervical dislocation. Fetuses were collected and immediately placed in ice-cold L15 Leibovitz medium with a 2% penicillin (10,000 U/ml) and streptomycin (10 mg/ml) solution (PS) and 1% bovine serum albumin (BSA). Only a restricted ventral portion of the mesencephalic flexure was used for cell preparation as this is the region of the developing brain rich in MSN cells. These areas were treated for 20 min at 37° C. with a trypsin-EDTA solution at a final concentration of 0.05% trypsin and 0.02% EDTA. […] Viable cells were counted in a Neubauer cytometer using the trypan blue exclusion test. […]
as §2
The following read-out was investigated: Analysis of MSNs survival (GAD67 staining, number of GABAergic neurons).

[2] = tested on: spinal motor neurons injured with glutamate; assay: Survival and neurite network of primary spinal motor neurons after glutamate injury; format: cell-based, rat; settings: glutamate 5 μM 20 min
Procedure: as §1
Spinal cords were treated for 20 min at 37° C. with a trypsin-EDTA solution at a final concentration of 0.05% trypsin and 0.02% EDTA. The dissociation was stopped by addition of Dulbecco's modified Eagle's medium (DMEM) with 4.5 g/I glucose, containing DNAse I grade II (final concentration 0.5 mg/ml) and 10% fetal calf serum (FCS). Cells were mechanically dissociated by three forced passages through the tip of a 10-ml pipette. Cells were then centrifuged at 515×g for 10 min at 4° C. The supernatant was discarded, and the pellet was resuspended in a defined culture medium consisting of Neurobasal medium with a 2% solution of B27 supplement, 2 mmol/I L-glutamine, 2% PS solution, and 10 ng/ml brain-derived neurotrophic factor (BDNF). Viable cells were counted in a Neubauer cytometer, using the trypan blue exclusion test. Cells were seeded at a density of 20,000 per well in 96-well plates precoated with poly-L-lysine and were cultured at 37° C. in an air (95%)-CO2 (5%) incubator.
The medium was changed every 2 days. […]
as §2, §3

Compound	dose reducing the signal of TDP43 in the cytoplasm of spinal motor neurons (TDP-43)	concentration with significant neuroprotective effect (survival of GABAergic neurons) [1]	concentrations significantly improving spinal motor neurons survival ([2]; 24 h)	concentrations significantly protecting the neurite network ([2]; spinal motor neurons)	ratio neurite network length/number of neurons ([2]; spinal motor neurons)
COc1cc(N)c(F)cc1C(=O)CCC1CCN(CC2CCCC2)CC1 [MR33583]	100 nM	50 nM	–	–	–
COc1cc(N)c(F)cc1C(=O)CCC1CCN(CC2CCCCCC2)CC1 [MR36014]	–	–	1 nM	1 nM	not modified

Reference: patent publication US20220031680A1, “Donecopride As Neuroprotective Agent In the Treatment of Neurodegenerative Diseases” (priority 2018, published 2022)
